# Source: PMC2409523, “Hormonal impact of the 17α-hydroxylase/C17,20-lyase inhibitor abiraterone acetate (CB7630) in patients with prostate cancer” (British Journal of Cancer, 2004)
# Where “and” joins values, the source holds several entries; their conditions need not be identical. Equal entries are not always repeated.
# What was measured:
# [1] = design: method as in Barrie et al, 1994; Dowsett et al, 1988; details: rodent model, intraperitoneal administration; ref Barrie et al, 1994; Dowsett et al, 1988; cited from earlier work
# [2] = tested on: testosterone synthesis; test: Study B: single dose study in noncastrate males with prostate cancer, serum hormone levels; type: in vivo, human
# Procedure: This was a single dose study in noncastrate males (testosterone level ⩾9.0 nmol l^−1) to determine the dose of abiraterone acetate that was sufficient to cause suppression of testosterone synthesis to castrate levels (⩽2.0 nmol l^−1).
# This was a single-centre, open-label, phase one, single-dose study in which sequential cohorts of three noncastrate patients were to be treated at four dose levels: 200, 500, 650 and 800 mg. The starting dose of 200 mg was chosen when the results of study A were available.
# All patients were required to have a normal testosterone level prior to study entry (i.e. ⩾9.0 nmol l^−1) as well as normal gonadotrophin levels (Luteinising Hormone (LH) ⩽13 IU l^−1).
# Serum samples for endocrine analysis were obtained at 0, 2, 4, 8 and 24 h on a single day in the week prior to treatment commencement and then on Days 1, 2, 3, 4 and 7. As the duration of testosterone suppression was longer than originally anticipated, additional samples were added on Days 10, 14 and 21. The serum samples were analysed for testosterone, cortisol, 17 α-hydroxyprogesterone (17HP), androstenedione, LH and follicle-stimulating hormone (FSH) using commercially available kits. However, the DPC Coat-a-count kit for testosterone was sensitised using a larger volume of sample/standard and extension of the standard curve. […] All endocrine analyses were conducted by radioimmunoassay except for LH and FSH, which were by enzyme immunoassay.
# [3] = tested on: testosterone synthesis; test: Study C: multiple dose study (Days 1–12) in noncastrate males with prostate cancer, serum hormone levels; type: in vivo, human
# Procedure: If this level of suppression was achieved, then it was planned to escalate the doses still higher to establish whether further suppression of testosterone was possible. […] This was a three-centre, open-label, phase one, multidose study in which sequential cohorts of three noncastrate patients were to receive treatment with abiraterone daily for 12 days. […] The starting dose of 500 mg was based upon the data from the single-dose studies. It was planned that a dose level would be expanded to six patients if any patient experienced toxicity ⩾ Grade III or if there was a significant suppression of serum cortisol in one patient (defined as per Study B above). All patients were followed for 28 days for any sign of toxicity. […] The schedule sampling differed slightly with samples removed at 0930 and 1730 on the day of treatment and thereafter in the morning on Days 2, 3, 4, 7, 8, 9, 10, 11, 14, 21 and 28. In Study C, a short […] test was also performed prior to therapy and again around Day 11.
# [4] = tested on: 17α hydroxylation; design: method as in Barrie et al, 1994; Dowsett et al, 1988; details: preclinical studies, correlative evidence of inhibition of 17α hydroxylation; ref Barrie et al, 1994; Dowsett et al, 1988; cited from earlier work
# [5] = Pharmacokinetics in patient plasma (LC-MS); type: in vivo, human; details: at the dose levels studied, all three studies combined
# Procedure: Sample extracts were analysed by a fully validated liquid chromatography mass spectrometry method. The instrument consisted of Wisp Model 717 autosampler including a Model 600MS system controller with a quaternary U6K LC pump. A Finnigan MAT TSQ 700 triple quadrupole mass spectrometer was used as the detection system, together with Finnigan MAT ICIS and ICL software for data capture and processing (ThermoQuest Ltd, San Jose, CA, USA). The separation of analytes was performed on a Supelcosil LC-ABZ (5 μm, 250 × 4.6 mm) analytical column protected by a guard column (Supelco, Bellefonte, PA, USA). The mobile phase consisted of 570 ml of 20 mM ammonium acetate solution, 100 ml tetrahydrofuran and 1330 ml acetonitrile and was delivered at a flow rate of 1 ml min^−1 throughout the system. Column eluant was subjected to electrospray ionisation and monitored by selected ion monitoring (SIM) of protonated pseudo-molecular ions of authentic standards of abiraterone acetate and abiraterone, and GP488 (an analogue of abiraterone used as internal standard). For SIM, the scan width was 0.25 and the total scan time was 2.99 s. Also, heated capillary temperature=250°C, spray voltage=4.5 kV, collision offset=−49.9 V and electron multiplier voltage=1200 eV. Samples were extracted as follows: 50 μl of acetonitrile and 40 μl of 50 μM GP488 internal standard were added to 500 μl of patient plasma. […] The dried residue was reconstituted by vortexing in 150 μl of acetonitrile and transferred into autosampler vials. Aliquots (100 μl) of these samples were injected onto the LC column. […] A comprehensive PK profile (Cmax, Tmax, T1/2α T1/2 and Kabs) was determined for each patient. Pharmacokinetic parameters were evaluated using WinNonLin Software® and were conducted at The Institute of Cancer Research (Sutton). Blood was sampled for analysis of abiraterone concentration prior to drug administration and at the following times on Day 1: 30 min, 1, 2, 4, 6, 8 and 12 h. In the multidose study, samples were also drawn prior to treatment on Days 2, 3, 4, 7, 8, 9, 10, 11 and 14 with additional samples on Days 21 and 28. Samples (7 ml) were collected into vacutainer tubes (BD, Rutherford, NJ, USA) containing EDTA and immediately centrifuged to separate the plasma. At least 2 ml of plasma was transferred into polypropylene tubes (NUNC) and frozen at –20° until analysis.
# [6] = tested on: cortisol synthesis; test: Short Synacthen test in Study C; type: in vivo, human
# Procedure: The schedule sampling differed slightly with samples removed at 0930 and 1730 on the day of treatment and thereafter in the morning on Days 2, 3, 4, 7, 8, 9, 10, 11, 14, 21 and 28. In Study C, a short Synacthen test was also performed prior to therapy and again around Day 11.
# [7] = 500 mg daily Days 1–12, noncastrate patients
structure (smiles),measurement,setting,value
CC(=O)O[C@H]1CC[C@@]2(C)C(=CC[C@@H]3[C@@H]2CC[C@]2(C)C(c4cccnc4)=CC[C@@H]32)C1 [abiraterone acetate],deacetylation,[1],rapid deacetylation
same,LH levels,"[2]; single oral dose 200 mg, noncastrate",did not alter
same,level of testosterone relative to baseline,"[2]; single oral dose 500 mg, noncastrate patients, Day 3, each case",less than 50%
same,change in cortisol level,"[2]; single oral dose, noncastrate patients",No change
same,testosterone level reached,"[3]; 500 mg daily Days 1–12, all three noncastrate patients",≤ 2.0 nmol/L
same,duration of substantial testosterone suppression,[3]; [7],up to 9 days
same,serum cortisol levels,[3]; [7],remained within normal limits
same,time of maximal testosterone suppression,[3]; [7],1 to 3 days
same,target testosterone level of ⩽0.7 nmol l^−1,"[3]; 500 mg daily Days 1–12, three noncastrate patients",did not reach the target level
same,day on which target testosterone suppression (⩽0.7 nmol l^−1) was obtained,"[3]; 800 mg daily Days 1–12, first patient",1 days
same,testosterone level,"[3]; 800 mg daily, final patient, by Day 2",1.7 nmol/L
same,rise in LH,"[3]; 800 mg daily, final patient, from Day 3",two-fold rise
same,testosterone level,"[3]; 800 mg daily, final patient, from Day 4",> 2.0 nmol/L
same,testosterone levels for the duration of treatment,"[3]; 800 mg daily, first patient",≤ 2.0 nmol/L
same,increase in LH,"[3]; 800 mg daily, first patient, from Day 3",three-fold increase
same,duration of target testosterone suppression,"[3]; 800 mg daily, first patient, then reversed with rising LH",3 days
same,day on which target testosterone suppression (⩽0.7 nmol l^−1) was reached,"[3]; 800 mg daily, second patient",4 days
same,testosterone level,"[3]; 800 mg daily, second patient, Day 7, otherwise below target level",0.77 nmol/L
same,increase of Luteinising Hormone (LH) levels,"[3]; 800 mg days 1–12, two out of three patients, overcame suppression within 3 days",two- to three-fold
same,effect on FSH levels,"[3]; 800 mg, repeat dose",no effect
same,fall of evening cortisol from baseline evening cortisol,"[3]; multidose study, evening of Day 1, three patients",60% and 71% and 69%
same,dose required to maintain testosterone suppression to target levels,"[3]; repeat dose studies, noncastrate males",at least 800 mg
same,weight of the ventral prostate,[4],reduced weight of the ventral prostate
same,saturation of drug absorption,[5],no evidence of saturation of drug absorption
same,response to Synacthen,"[6]; 500 mg daily, all three patients, by Day 11",abnormal response
same,mean change in cortisol in response to Synacthen,"[6]; 500 mg daily, by Day 11, baseline 294.3 nmol l^−1",42 nmol/L
same,mean change in cortisol in response to Synacthen (percent),"[6]; 500 mg daily, by Day 11, baseline +77%",+10%
same,cortisol response to the short Synacthen test,"[6]; 800 mg daily, all three patients, Day 11",abnormal
same,mean change in cortisol levels in response to Synacthen,"[6]; 800 mg daily, by Day 11, baseline 385 nmol l^−1",65.3 nmol/L
same,mean change in cortisol levels in response to Synacthen (percent),"[6]; 800 mg daily, by Day 11, baseline 120%",23%
